Reference: US4078058A (priority 1976, dated 1978)

Experiments:
Format in all cases: cell-based
Pseudomonas aeruginosa = test: In vitro inhibition in nutrient broth, Pseudomonas aeruginosa; conditions: no growth by 48 hours; inoculum 0.2 ml of 1/10,000 dilution of overnight culture
Protocol: (§1) In these tests bacterial growth was measured or observed by turbidity in the test tubes containing the inoculated nutrient broth after 18-20 hours incubation at 37° C.
(§2) *Concentration -- μM/ml which permitted no growth by 48 hours.
(§3) Inoculum = 0.2 ml of 1/10,000 dilution of overnight culture.

Esch. coli = test: In vitro inhibition in nutrient broth, Esch. coli; conditions: no growth by 48 hours; inoculum 0.2 ml of 1/10,000 dilution of overnight culture
Protocol: as §1, §2, §3

Klebsiella pneumoniae = test: In vitro inhibition in nutrient broth, Klebsiella pneumoniae; conditions: no growth by 48 hours; inoculum 0.2 ml of 1/10,000 dilution of overnight culture
Protocol: as §1, §2, §3

bacterial growth = test: Inhibition of bacterial growth in nutrient broth (turbidity), organism not specified; conditions: 18-20 hours incubation at 37° C.
Protocol: as §1

Staph. aureus = test: In vitro inhibition in nutrient broth, Staph. aureus; conditions: no growth by 48 hours; inoculum 0.2 ml of 1/10,000 dilution of overnight culture
Protocol: as §1, §2, §3

| SMILES | Inhibitory concentration, Pseudomonas aeruginosa (Pseudomonas aeruginosa) [μM per ml] | Inhibitory concentration, Esch. coli (Esch. coli) [μM per ml] | Inhibitory concentration, Klebsiella pneumoniae (Klebsiella pneumoniae) [μM per ml] | concentration inhibiting bacterial growth (bacterial growth) | Inhibitory concentration, Staph. aureus (Staph. aureus) [μM per ml] |
| --- | --- | --- | --- | --- | --- |
| O=[N+]([O-])[O-].O=[N+]([O-])[O-].O=[N+]([O-])[O-].[Ce+3] [Cerous nitrate, cerous nitrate] | 2.5 | 2.5 | 5.0 | at least 1.0 μM per ml | 5.0 |
| O=[N+]([O-])[O-].[Ag+] [Silver nitrate, silver nitrate] | 0.025 | 0.005 | 0.1 |  | 0.005 |
